Data published in patent publication US12643903B2, “Bifunctional compounds for degradation of EGFR and related methods of use” (BeiGene, Ltd., priority 2020, dated 2026).

Experiments:
EGFR DTC = test: Cell Degradation 3: EGFR degradation in BaF3 cells (DTC), HTRF assay; assay type: cell-based; conditions: 16 h treatment, EGFR degradation by HTRF
Protocol: (§1) Cell Degradation 3 Cell Treatment
(§2) BaF3 cells are treated with compounds diluted in 0.2% DMSO, dilution is done according to the following protocol: (1) make 500× stock solution in DMSO from 5 mM by 4-fold dilution, total 8 doses were included; (2) make 2× solution in cell culture medium by transferring 0.5 μl 500× stock solution into 125 μl medium; (3) 30 μl of 2× solution is added to cells and incubate for 16 h.
(§3) After 16 h treatment, add 20 μl 4×lysis buffer to each well; seal the plate and incubate 1 hour at room temperature on a plate shaker; Once the cells are lysed, 16 μL of cell lysate are transferred to a PE 384-well HTRF detection plate (for triple mutant cells, the lysate were diluted by the qual volume 1×lysis buffer before transfer); 4 μL of pre-mixed HTRF antibodies are added to each well; Cover the plate with a plate sealer, spin 1000 rpm for 1 min, Incubate overnight at room temperature; Read on BMG PheraStar with HTRF protocol (337 nm-665 nm-620 nm).
(§4) The IC50 (DC50) value of a compound can be obtained by fitting the following equation Y=Bottom+(TOP−Bottom)/(1+((IC50/X)^hillslope))
(§5) Wherein, X and Y are known values, and IC50, Hillslope, Top and Bottom are the parameters obtained by fitting with software. Y is the inhibition percentage (calculated from the equation), X is the concentration of the compound; IC50 is the concentration of the compound when the 50% inhibition is reached. The smaller the IC50 value is, the stronger the inhibitory ability of the compound is. Vice versa, the higher the IC50 value is, the weaker the ability the inhibitory ability of the compound is; Hillslope represents the slope of the fitted curve, generally around 1*; Bottom represents the minimum value of the curve obtained by data fitting, which is generally 0%±20%; Top represents the maximum value of the curve obtained by data fitting, which is generally 100%±20%. The experimental data were fitted by calculating and analyzing with Dotmatics data analysis software.

EGFR LTC = target: T1, EGFR LTC (Homo sapiens, UniProt P00533, C797S/L858R/T790M); test: Cell Degradation 3: EGFR degradation in BaF3 cells (LTC), HTRF assay; assay type: cell-based; conditions: 16 h treatment, EGFR degradation by HTRF
T1 construct: expressed in transfected cells; host or cells: BaF3
Protocol: as §1, §2, §3, §4, §5

T1 sequence (P00533 25-1210 T790M/C797S/L858R): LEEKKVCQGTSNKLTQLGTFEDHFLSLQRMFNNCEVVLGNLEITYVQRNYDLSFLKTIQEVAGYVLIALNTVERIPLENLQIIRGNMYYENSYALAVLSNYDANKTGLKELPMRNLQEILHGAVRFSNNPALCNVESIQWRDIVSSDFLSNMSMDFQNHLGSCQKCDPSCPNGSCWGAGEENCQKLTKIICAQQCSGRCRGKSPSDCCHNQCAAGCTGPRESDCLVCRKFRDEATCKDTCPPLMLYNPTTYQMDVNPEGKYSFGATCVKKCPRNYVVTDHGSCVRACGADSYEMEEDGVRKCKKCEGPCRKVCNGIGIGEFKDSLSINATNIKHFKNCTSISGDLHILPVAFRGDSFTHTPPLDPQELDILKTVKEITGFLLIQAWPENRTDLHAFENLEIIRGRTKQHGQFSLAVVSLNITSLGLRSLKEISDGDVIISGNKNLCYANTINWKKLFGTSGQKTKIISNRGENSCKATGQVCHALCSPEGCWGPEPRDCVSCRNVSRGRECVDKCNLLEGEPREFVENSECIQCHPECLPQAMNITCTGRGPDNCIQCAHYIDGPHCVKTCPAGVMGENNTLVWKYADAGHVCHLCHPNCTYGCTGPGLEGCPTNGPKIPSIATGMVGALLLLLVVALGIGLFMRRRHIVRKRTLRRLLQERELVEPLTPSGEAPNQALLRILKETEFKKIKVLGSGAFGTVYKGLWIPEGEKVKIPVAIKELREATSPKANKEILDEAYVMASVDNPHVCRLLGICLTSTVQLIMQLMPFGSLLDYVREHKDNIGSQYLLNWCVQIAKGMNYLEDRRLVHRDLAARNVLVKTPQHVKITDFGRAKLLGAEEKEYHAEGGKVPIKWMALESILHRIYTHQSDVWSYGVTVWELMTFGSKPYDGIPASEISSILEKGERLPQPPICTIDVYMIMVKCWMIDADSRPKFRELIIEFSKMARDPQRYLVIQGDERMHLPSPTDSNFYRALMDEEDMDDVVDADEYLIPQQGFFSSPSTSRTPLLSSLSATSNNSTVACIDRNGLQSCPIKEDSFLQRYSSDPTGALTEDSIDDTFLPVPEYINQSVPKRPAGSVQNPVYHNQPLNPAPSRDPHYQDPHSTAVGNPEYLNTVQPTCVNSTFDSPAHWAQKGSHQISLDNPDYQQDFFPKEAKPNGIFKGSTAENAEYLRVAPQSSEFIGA

`COc1cc(N2CCC(N3CCN(CCC4CCN(c5cc(F)c(C6CCC(=O)NC6=O)c(F)c5)CC4)CC3=O)CC2)c(C)cc1Nc1ncc(Br)c(Nc2cccc3c2N(S(C)(=O)=O)CC3)n1` (centres unmarked) [Example 186, 3-(4-(4-(2-(4-(1-(4-((5-bromo-4-((1-(methylsulfonyl)indolin-7-yl)amino)pyrimidin-2-yl)amino)-5-methoxy-2-methylphenyl)piperidin-4-yl)-3-oxopiperazin-1-yl)ethyl)piperidin-1-yl)-2,6-difluorophenyl)piperidine-2,6-dione] showed a DC50 (EGFR DTC) of 6 nM and a DC50 (EGFR LTC) of 27 nM.
`COc1cc(N2CCC(N3CCN(CCN4CCC(c5ccc(NC6CCC(=O)NC6=O)cc5)CC4)CC3)CC2)c(C)cc1Nc1ncc(Br)c(Nc2cccc3c2N(S(C)(=O)=O)CC3)n1` (centres unmarked) [Example 157, 3-((4-(1-(2-(4-(1-(4-((5-bromo-4-((1-(methylsulfonyl)indolin-7-yl)amino)pyrimidin-2-yl)amino)-5-methoxy-2-methylphenyl)piperidin-4-yl)piperazin-1-yl)ethyl)piperidin-4-yl)phenyl)amino)piperidine-2,6-dione] showed a DC50 (EGFR DTC) of 300 nM and a DC50 (EGFR LTC) of 396 nM.
With `COc1cc(N2CCC(N3CCN(C(=O)C4CN(c5cc(F)c(C6CCC(=O)NC6=O)c(F)c5)C4)CC3)CC2)c(C)cc1Nc1ncc(Br)c(Nc2cccc3c2N(S(C)(=O)=O)CC3)n1` (centres unmarked) [Example 188, 3-(4-(3-(4-(1-(4-((5-bromo-4-((1-(methylsulfonyl)indolin-7-yl)amino)pyrimidin-2-yl)amino)-5-methoxy-2-methylphenyl)piperidin-4-yl)piperazine-1-carbonyl)azetidin-1-yl)-2,6-difluorophenyl)piperidine-2,6-dione] the DC50 (EGFR DTC) was 6 nM and the DC50 (EGFR LTC) was 15 nM.
`COc1cc(N2CCC(N3CCN(C4CCN(c5ccc6c(c5)C(=O)N(C5CCC(=O)NC5=O)C6=O)CC4)CC3)CC2)c(C)cc1Nc1ncc(Br)c(Nc2cccc3c2N(S(C)(=O)=O)CC3)n1` (centres unmarked) [Example 167, 5-(4-(4-(1-(4-((5-bromo-4-((1-(methylsulfonyl)indolin-7-yl)amino)pyrimidin-2-yl)amino)-5-methoxy-2-methylphenyl)piperidin-4-yl)piperazin-1-yl)piperidin-1-yl)-2-(2,6-dioxopiperidin-3-yl)isoindoline-1,3-dione] was tested, and the DC50 (EGFR DTC) was 225 nM and the DC50 (EGFR LTC) was > 10000 nM.
`COc1cc(N2CCC(N3CCN(CCc4ccc(NC5CCC(=O)NC5=O)cc4)CC3)CC2)c(C)cc1Nc1ncc(Br)c(Nc2cccc3c2N(S(C)(=O)=O)CC3)n1` (centres unmarked) [Example 152, 3-((4-(2-(4-(1-(4-((5-bromo-4-((1-(methylsulfonyl)indolin-7-yl)amino)pyrimidin-2-yl)amino)-5-methoxy-2-methylphenyl)piperidin-4-yl)piperazin-1-yl)ethyl)phenyl)amino)piperidine-2,6-dione] showed a DC50 (EGFR DTC) of 66 nM and a DC50 (EGFR LTC) of 27 nM.
`COc1cc(N2CCC(N3CCN(CC4CCN(c5cc(F)c(C6CCC(=O)NC6=O)c(F)c5)CC4)CC3)CC2)c(C)cc1Nc1ncc(Br)c(Nc2cccc3c2N(S(C)(=O)=O)CC3)n1` (centres unmarked) [Example 181, 3-(4-(4-((4-(1-(4-((5-bromo-4-((1-(methylsulfonyl)indolin-7-yl)amino)pyrimidin-2-yl)amino)-5-methoxy-2-methylphenyl)piperidin-4-yl)piperazin-1-yl)methyl)piperidin-1-yl)-2,6-difluorophenyl)piperidine-2,6-dione] was tested, and the DC50 (EGFR DTC) was 43 nM and the DC50 (EGFR LTC) was 64 nM.
For `COc1cc(N2CCC(N3CCN(C4CCN(c5cccc(C6CCC(=O)NC6=O)c5)CC4)CC3)CC2)c(C)cc1Nc1ncc(Br)c(Nc2cccc3c2N(S(C)(=O)=O)CC3)n1` (centres unmarked) [Example 177, 3-(3-(4-(4-(1-(4-((5-bromo-4-((1-(methylsulfonyl)indolin-7-yl)amino)pyrimidin-2-yl)amino)-5-methoxy-2-methylphenyl)piperidin-4-yl)piperazin-1-yl)piperidin-1-yl)phenyl)piperidine-2,6-dione], the DC50 (EGFR DTC) was > 10000 nM and the DC50 (EGFR LTC) was 123 nM.
For `COc1cc(N2CCC(N3CCN(CC4CN(c5ccc6c(c5)C(=O)N(C5CCC(=O)NC5=O)C6)C4)CC3)CC2)c(C)cc1Nc1ncc(Br)c(Nc2cccc3c2N(S(C)(=O)=O)CC3)n1` (centres unmarked) [Example 180, 3-(6-(3-((4-(1-(4-((5-bromo-4-((1-(methylsulfonyl)indolin-7-yl)amino)pyrimidin-2-yl)amino)-5-methoxy-2-methylphenyl)piperidin-4-yl)piperazin-1-yl)methyl)azetidin-1-yl)-1-oxoisoindolin-2-yl)piperidine-2,6-dione], the DC50 (EGFR DTC) was 14 nM and the DC50 (EGFR LTC) was 30 nM.
`COc1cc(N2CCC(N3CCN(C(=O)C4CCN(c5cc(F)c(C6CCC(=O)NC6=O)c(F)c5)C4)CC3)CC2)c(C)cc1Nc1ncc(Br)c(Nc2cccc3c2N(S(C)(=O)=O)CC3)n1` (centres unmarked) [Example 187, 3-(4-(3-(4-(1-(4-((5-bromo-4-((1-(methylsulfonyl)indolin-7-yl)amino)pyrimidin-2-yl)amino)-5-methoxy-2-methylphenyl)piperidin-4-yl)piperazine-1-carbonyl)pyrrolidin-1-yl)-2,6-difluorophenyl)piperidine-2,6-dione] was tested, and the DC50 (EGFR DTC) was 14 nM and the DC50 (EGFR LTC) was 19 nM.
With `COc1cc(N2CCC(N3CCN(CCOc4cccc5c4C(=O)N(C4CCC(=O)NC4=O)C5=O)CC3)CC2)c(C)cc1Nc1ncc(Br)c(Nc2cccc3c2N(S(C)(=O)=O)CC3)n1` (centres unmarked) [Example 166, 4-(2-(4-(1-(4-((5-bromo-4-((1-(methylsulfonyl)indolin-7-yl)amino)pyrimidin-2-yl)amino)-5-methoxy-2-methylphenyl)piperidin-4-yl)piperazin-1-yl)ethoxy)-2-(2,6-dioxopiperidin-3-yl)isoindoline-1,3-dione] the DC50 (EGFR DTC) was 175 nM and the DC50 (EGFR LTC) was 247 nM.
With `COc1cc(N2CCC(N3CCN(CCc4ccc(C5CCC(=O)NC5=O)c(F)c4)CC3)CC2)c(C)cc1Nc1nc(Nc2cccc3c2N(S(C)(=O)=O)CC3)c2cc[nH]c2n1` (centres unmarked) [Example 162, 3-(2-fluoro-4-(2-(4-(1-(5-methoxy-2-methyl-4-((4-((1-(methylsulfonyl)indolin-7-yl)amino)-7H-pyrrolo[2,3-d]pyrimidin-2-yl)amino)phenyl)piperidin-4-yl)piperazin-1-yl)ethyl)phenyl)piperidine-2,6-dione] the DC50 (EGFR DTC) was 78 nM and the DC50 (EGFR LTC) was > 10000 nM.
For `COc1cc(N2CCC(N3CCN(CCc4cc(Cl)c(C5CCC(=O)NC5=O)cc4F)CC3)CC2)c(C)cc1Nc1ncc(Br)c(Nc2cccc3c2N(S(C)(=O)=O)CC3)n1` (centres unmarked) [Example 174, 3-(4-(2-(4-(1-(4-((5-bromo-4-((1-(methylsulfonyl)indolin-7-yl)amino)pyrimidin-2-yl)amino)-5-methoxy-2-methylphenyl)piperidin-4-yl)piperazin-1-yl)ethyl)-2-chloro-5-fluorophenyl)piperidine-2,6-dione], the DC50 (EGFR DTC) was 30 nM and the DC50 (EGFR LTC) was 69 nM.
`COc1cc(N2CCC(N3CCN(CC4CN(c5ccc6c(c5)C(=O)N(C5CCC(=O)NC5=O)C6=O)C4)CC3)CC2)c(C)cc1Nc1ncc(Br)c(Nc2cccc3c2N(S(C)(=O)=O)CC3)n1` (centres unmarked) [Example 151, 5-(3-((4-(1-(4-((5-bromo-4-((1-(methylsulfonyl)indolin-7-yl)amino)pyrimidin-2-yl)amino)-5-methoxy-2-methylphenyl)piperidin-4-yl)piperazin-1-yl)methyl)azetidin-1-yl)-2-(2,6-dioxopiperidin-3-yl)isoindoline-1,3-dione] showed a DC50 (EGFR DTC) of 14 nM and a DC50 (EGFR LTC) of 17 nM.
`COc1cc(N2CCC(N3CCN(C[C@H]4C[C@H](N(C)c5ccc(C6CCC(=O)NC6=O)cc5)C4)CC3)CC2)c(C)cc1Nc1ncc(Br)c(Nc2cccc3c2N(S(C)(=O)=O)CC3)n1` (some centres unmarked) [Example 176, 3-(4-(((1r,3r)-3-((4-(1-(4-((5-bromo-4-((1-(methylsulfonyl)indolin-7-yl)amino)pyrimidin-2-yl)amino)-5-methoxy-2-methylphenyl)piperidin-4-yl)piperazin-1-yl)methyl)cyclobutyl)(methyl)amino)phenyl)piperidine-2,6-dione] showed a DC50 (EGFR DTC) of 94 nM and a DC50 (EGFR LTC) of 65 nM.
`COc1cc(N2CCC(N3CCN(CC4CN(c5cc(F)c(C6CCC(=O)NC6=O)c(F)c5)C4)CC3)CC2)c(C)cc1Nc1ncc(Br)c(Nc2cccc3c2N(S(C)(=O)=O)CC3)n1` (centres unmarked) [Example 184, 3-(4-(3-((4-(1-(4-((5-bromo-4-((1-(methylsulfonyl)indolin-7-yl)amino)pyrimidin-2-yl)amino)-5-methoxy-2-methylphenyl)piperidin-4-yl)piperazin-1-yl)methyl)azetidin-1-yl)-2,6-difluorophenyl)piperidine-2,6-dione] showed a DC50 (EGFR DTC) of 27 nM and a DC50 (EGFR LTC) of 33 nM.
In the case of `COc1cc(N2CCC(N3CCN(C(=O)C4CN(c5ccc6c(c5)C(=O)N(C5CCC(=O)NC5=O)C6)C4)CC3)CC2)c(C)cc1Nc1ncc(Br)c(Nc2cccc3c2N(S(C)(=O)=O)CC3)n1` (centres unmarked) [Example 171, 3-(6-(3-(4-(1-(4-((5-bromo-4-((1-(methylsulfonyl)indolin-7-yl)amino)pyrimidin-2-yl)amino)-5-methoxy-2-methylphenyl)piperidin-4-yl)piperazine-1-carbonyl)azetidin-1-yl)-1-oxoisoindolin-2-yl)piperidine-2,6-dione], the DC50 (EGFR DTC) is reported as 4 nM and the DC50 (EGFR LTC) is reported as 9 nM.
